Active and inactive are the calls of the source. No cut-off for these calls is given here.
How the values were obtained:
B16 [1] = experiment: Antiproliferative activity against mouse B16 cells measured after 48 hrs by MTT assay; assay type: functional, cell-based; details: B16, 48 h
B16 [2] = experiment: Anti-melanoma activity against mouse B16 cells xenografted in Kunming mouse model assessed as increase in bax expression at 60 mg/kg, IG measured after 27 days by IHC staining based analysis; assay type: functional, organism-based; details: time 27.0 day
PC-3 = experiment: Antiproliferative activity against human PC-3 cells at 25 uM measured after 48 hrs by MTT assay; assay type: functional, cell-based
[3] = Inhibition of cell migration in mouse B16 cells at 9.70 uM measured after 48 hrs by scratch-wound healing assay relative to control; assay type: functional
[4] = Inhibition of cell migration in mouse B16 cells at 9.70 uM measured after 24 hrs by crystal violet staining based analysis relative to control; assay type: functional
B16 [5] = experiment: Anti-melanoma activity against mouse B16 cells xenografted in Kunming mouse model assessed as reduction in tumor volume at 60 mg/kg, IG measured upto 27 days; assay type: functional, organism-based; details: time <= 27.0 day
B16 [6] = experiment: Upregulation of caspase 3 expression in mouse B16 cells at 9.70 uM measured after 48 hrs by Western blot analysis; assay type: functional, cell-based; details: dose 9.7 µM
[7] = Drug metabolism in mouse plasma assessed as abiraterone Cmax at 20 mg/kg, IG; assay type: ADME, organism-based; details: in vivo, po
B16 [8] = experiment: Upregulation of […] expression in mouse B16 cells at 9.70 uM measured after 48 hrs by Western blot analysis; assay type: functional, cell-based; details: dose 9.7 µM
B16 [9] = experiment: Anti-melanoma activity against mouse B16 cells xenografted in Kunming mouse model assessed as increase in caspase 8 expression at 60 mg/kg, IG measured after 27 days by IHC staining based analysis; assay type: functional, organism-based; details: time 27.0 day
B16 [10] = experiment: Anti-melanoma activity against mouse B16 cells xenografted in Kunming mouse model assessed as reduction in tumor volume at 60 mg/kg, IG measured after 5 days; assay type: functional, organism-based; details: time 5.0 day
B16 [11] = experiment: Anti-melanoma activity against mouse B16 cells xenografted in Kunming mouse model assessed as decrease in bcl-2 level at 60 mg/kg, IG measured after 27 days by IHC staining based analysis; assay type: functional, organism-based; details: time 27.0 day
[12] = Inhibition of cell invasion in mouse B16 cells at 9.70 uM measured after 24 hrs by crystal violet staining based analysis relative to control; assay type: functional
B16 [13] = experiment: Anti-melanoma activity against mouse B16 cells xenografted in Kunming mouse model assessed as suppression of tumor weight at 60 mg/kg, IG measured every two days for 27 days (reference value: 10.61+/-1.05g); assay type: functional; details: time 27 day
B16 [14] = experiment: Induction of endoplasmic reticulum (ER) stress in mouse B16 cells assessed as decrease in alix expression at 9.70 uM measured after 48 hrs by Western blot analysis; assay type: functional, cell-based; details: dose 9.7 µM
[15] = Drug metabolism in mouse plasma assessed as abiraterone Tmax at 20 mg/kg, IG; assay type: ADME, organism-based; details: in vivo, po
[16] = Induction of apoptosis in mouse B16 cells assessed as necrosis at 19.4 uM measured after 48 hrs by annexin-V/PI double staining based flow cytometry analysis relative to control; assay type: functional
B16 [17] = experiment: Anti-melanoma activity against mouse B16 cells xenografted in Kunming mouse model assessed as increase in caspase 3 expression at 60 mg/kg, IG measured after 27 days by IHC staining based analysis; assay type: functional, organism-based; details: time 27.0 day
[18] = Toxicity in Kunming mouse assessed as effect on body weight at 60 mg/kg, IG measured after 21 days; assay type: organism-based; details: in vivo, po, 504 h, time 21 day
B16 [19] = experiment: Anti-melanoma activity against mouse B16 cells xenografted in Kunming mouse model assessed as reduction in tumor volume at 60 mg/kg, IG measured after 7 to 27 days; assay type: functional, organism-based; details: time 7-27 day
B16 [20] = experiment: Downregulation of Bcl-2 expression in mouse B16 cells at 9.70 uM measured after 48 hrs by Western blot analysis; assay type: functional, cell-based; details: dose 9.7 µM
[21] = Induction of apoptosis in mouse B16 cells at 19.4 uM measured after 48 hrs by annexin-V/PI double staining based flow cytometry analysis relative to control; assay type: functional
B16 [22] = experiment: Induction of endoplasmic reticulum (ER) stress in mouse B16 cells assessed as effect on GRP78 expression at 9.70 uM measured after 48 hrs by Western blot analysis; assay type: functional, cell-based; details: dose 9.7 µM
B16 [23] = experiment: Anti-melanoma activity against mouse B16 cells xenografted in Kunming mouse model assessed as inhibition of tumor weight at 60 mg/kg, IG measured every two days for 27 days relative to control; assay type: functional; set-up: scale not given: the % may be the effect or the level left; details: time 27 day
B16 [24] = experiment: Upregulation of caspase 8 expression in mouse B16 cells at 9.70 uM measured after 48 hrs by Western blot analysis; assay type: functional, cell-based; details: dose 9.7 µM
DU-145 = experiment: Antiproliferative activity against human DU-145 cells at 25 uM measured after 48 hrs by MTT assay; assay type: functional, cell-based
B16 [25] = experiment: Induction of endoplasmic reticulum (ER) stress in mouse B16 cells assessed as effect on CHOP expression at 9.70 uM measured after 48 hrs by Western blot analysis; assay type: functional, cell-based; details: dose 9.7 µM
B16 [26] = experiment: Effect on Bcl-2 expression in mouse B16 cells at 9.70 uM measured after 48 hrs by Western blot analysis; assay type: functional, cell-based; details: dose 9.7 µM
BGC-823 = experiment: Antiproliferative activity against human BGC-823 cells at 25 uM measured after 48 hrs by MTT assay relative to control; assay type: functional
HCT-116 = experiment: Antiproliferative activity against human HCT-116 cells at 25 uM measured after 48 hrs by MTT assay relative to control; assay type: functional
B16 [27] = experiment: Antiproliferative activity against mouse B16 cells at 25 uM measured after 48 hrs by MTT assay relative to control; assay type: functional
[28] = Antiproliferative activity against human Prostate tumor cell line at 25 uM measured after 48 hrs by MTT assay relative to control; assay type: functional

CC(C)[C@H](NC(=O)CN)C(=O)O[C@H]1CC[C@@]2(C)C(=CC[C@@H]3[C@@H]2CC[C@]2(C)C(c4ccc(F)nc4)=CC[C@@H]32)C1
IC50 (B16 [1]): 3.16 µM

C[C@]12CC[C@H](O)CC1=CC[C@@H]1[C@@H]2CC[C@]2(C)C(c3ccc(F)nc3)=CC[C@@H]12
IC50 (B16 [1]): 56.4 µM

C[C@]12CC[C@H](OC(=O)CN)CC1=CC[C@@H]1[C@@H]2CC[C@]2(C)C(O)=CC[C@@H]12
IC50 (B16 [1]): 71.6 µM

C[C@]12CC[C@H](O)CC1=CC[C@@H]1[C@@H]2CC[C@]2(C)C(c3ccc(Cl)nc3)=CC[C@@H]12
IC50 (B16 [1]): 113 µM

CC(C)[C@H](N)C(=O)N[C@H](C(=O)O[C@H]1CC[C@@]2(C)C(=CC[C@@H]3[C@@H]2CC[C@]2(C)C(O)=CC[C@@H]32)C1)C(C)C
IC50 (B16 [1]): 23.6 µM

CC(C)[C@H](N)C(=O)NCC(=O)O[C@H]1CC[C@@]2(C)C(=CC[C@@H]3[C@@H]2CC[C@]2(C)C(c4cccnc4)=CC[C@@H]32)C1
IC50 (B16 [1]): 13.4 µM

CC(C)C[C@H](N)C(=O)O[C@H]1CC[C@@]2(C)C(=CC[C@@H]3[C@@H]2CC[C@]2(C)C(O)=CC[C@@H]32)C1
IC50 (B16 [1]): > 1000 µM

CC(=O)O[C@H]1CC[C@@]2(C)C(=CC[C@@H]3[C@@H]2CC[C@]2(C)C(c4cccnc4)=CC[C@@H]32)C1 [ABIRATERONE ACETATE]
Activity (B16 [2]): Active | Activity (PC-3): Active | inhibition at 9.7 µM [3]: 64% | inhibition at 9.7 µM [4]: 51% | Activity (B16 [5]): inactive | Activity (B16 [6]): inactive | Cmax [7]: 681 ng/mL | Activity (B16 [8]): Active | IC50 (B16 [1]): 28.7 µM | Activity (B16 [9]): Active | Activity (B16 [10]): Active | Activity (B16 [11]): Active | inhibition at 9.7 µM [12]: 61% | Activity (B16 [13]): 2.5 g | Activity (B16 [14]): Active | Tmax [15]: 4 h | Activity [16]: 49.8% | Activity (B16 [17]): Active | Activity [18]: Toxic | Activity (B16 [19]): inactive | Activity (B16 [20]): Active | Activity [21]: 9% | Activity (B16 [22]): inactive | Activity (B16 [23]): 76.42% | Activity (B16 [24]): Active | Activity (DU-145): Active | Activity (B16 [25]): inactive

CC(C)C[C@H](NC(=O)CN)C(=O)O[C@H]1CC[C@@]2(C)C(=CC[C@@H]3[C@@H]2CC[C@]2(C)C(c4cccnc4)=CC[C@@H]32)C1
Activity (B16 [6]): Active | Activity (B16 [8]): Active | IC50 (B16 [1]): 30.5 µM | Activity (B16 [26]): inactive | Activity (B16 [24]): Active

C[C@]12CC[C@H](OC(=O)CNC(=O)CN)CC1=CC[C@@H]1[C@@H]2CC[C@]2(C)C(c3cccnc3)=CC[C@@H]12
IC50 (B16 [1]): 177 µM

C[C@]12CC[C@H](OC(=O)CN)CC1=CC[C@@H]1[C@@H]2CC[C@]2(C)C(c3cccnc3)=CC[C@@H]12
IC50 (B16 [1]): 221 µM

CC(C)[C@H](N)C(=O)N[C@@H](C)C(=O)O[C@H]1CC[C@@]2(C)C(=CC[C@@H]3[C@@H]2CC[C@]2(C)C(O)=CC[C@@H]32)C1
Activity (BGC-823): 81.6% | Activity (HCT-116): 66% | Activity (B16 [27]): 83.7%

C[C@]12CC[C@H](OC(=O)[C@@H]3CCCN3C(=O)CN)CC1=CC[C@@H]1[C@@H]2CC[C@]2(C)C(c3cccnc3)=CC[C@@H]12
IC50 (B16 [1]): > 1000 µM

CC(C)[C@H](NC(=O)CN)C(=O)O[C@H]1CC[C@@]2(C)C(=CC[C@@H]3[C@@H]2CC[C@]2(C)C(c4cnccc4Cl)=CC[C@@H]32)C1
IC50 (B16 [1]): 3.78 µM

CC(C)[C@H](NC(=O)CN)C(=O)O[C@H]1CC[C@@]2(C)C(=CC[C@@H]3[C@@H]2CC[C@]2(C)C(O)=CC[C@@H]32)C1
IC50 (B16 [1]): 16.5 µM

C[C@]12CC[C@H](O)CC1=CC[C@@H]1[C@@H]2CC[C@]2(C)C(c3cccnc3)=CC[C@@H]12 [ABIRATERONE]
Activity (PC-3): Active | IC50 (B16 [1]): 106 µM | Activity (B16 [10]): Active | Activity (B16 [13]): 8.7 g | Activity [28]: 69.3% | Activity [18]: Toxic | Activity (B16 [19]): inactive | Activity (B16 [23]): 17.93% | Activity (DU-145): Active

CC(=O)O[C@H]1CC[C@@]2(C)C(=CC[C@@H]3[C@@H]2CC[C@]2(C)C(c4ccc(Cl)nc4)=CC[C@@H]32)C1
IC50 (B16 [1]): > 1000 µM

COc1ccc(C2=CC[C@H]3[C@@H]4CC=C5C[C@@H](OC(C)=O)CC[C@]5(C)[C@H]4CC[C@]23C)cn1
IC50 (B16 [1]): > 1000 µM

Reference: ChEMBL document CHEMBL5500331, “Discovery of novel peptide-dehydroepiandrosterone hybrids inducing endoplasmic reticulum stress with effective in vitro and in vivo anti-melanoma activities” (Eur J Med Chem, 2024)
